Source: article PMC11272611, “Phase Ib and pharmacokinetics study of alpelisib, a PIK3CA inhibitor, and capecitabine in patients with advanced solid tumors” (Frontiers in Oncology, 2024)
Read-outs that look alike come from different tables or passages of the source.

Experiments:
[1] = Pharmacokinetics of alpelisib and capecitabine in plasma (LC-MS/MS, non-compartmental); assay type: in vivo, human; details: for half-life / AUC(0-t) / Cmax: mean (range); for AUC(0-t): read-out: AUC0-6h; for AUC: range across dose escalation (dose levels 0 to 2), read-out: area under the concentration-time-curve (AUC)
Description: The pharmacokinetic (PK) analysis was conducted in all patients who received at least one dose of alpelisib and capecitabine combination therapy. Blood samples were collected at specified time points, including pre-dose, 1, 2, 4, and 6 hours post-dose, on day 1 of cycle 1. Measurements of alpelisib and capecitabine were carried out with a validated LC-MS/MS assay. PK parameters, including maximum plasma concentration (Cmax), time to reach maximum plasma concentration (tmax), area under the plasma concentration-time curve (AUC), and elimination half-life (t1/2), were calculated using non-compartmental methods. […] The data were presented as the mean (range) and standard deviation (SD).

[2] = design: method as in PMID 21332655; details: monotherapy, salvage regimens in Korea, retrospective data; cited from earlier work
[3] = tested on: advanced solid malignancies with PIK3CA alterations; design: method as in PMID 29401002; details: single-agent alpelisib, once daily; first-in-human phase I; cited from earlier work
[4] = human, plasma, oral, Dose level 0 (n=3): alpelisib 200mg+capecitabine 1000mg/m^2, day 1 of cycle 1
[5] = human, plasma, oral, Dose level 0 (n=3): alpelisib 200mg+capecitabine 1000mg/m^2, plasma, day 1 of cycle 1
[6] = human, plasma, oral, Dose level 1 (n=6): alpelisib 300mg+capecitabine 1000mg/m^2, day 1 of cycle 1
[7] = human, plasma, oral, Dose level 1 (n=6): alpelisib 300mg+capecitabine 1000mg/m^2, plasma, day 1 of cycle 1
[8] = human, plasma, oral, across dose levels 0, 1 and 2, read-out: time to reach peak concentration (tmax)

SMILES	half-life [1, 4]	AUC(0-t) [1, 4]	Cmax [1, 5]	half-life [1, 6]	AUC(0-t) [1, 6]	Tmax ([1]; human, plasma, oral, Dose level 1 (n=6): alpelisib 300mg+capecitabine 1000mg/m^2, day 1 of cycle 1, ± SD, read-out: tmax)	Cmax [1, 7]	Tmax [1, 8]	AUC ([1]; human, plasma, oral)	disease control rate [2]	Tmax ([1]; Dose level 0 (n=3): alpelisib 200mg+capecitabine 1000mg/m^2, day 1 of cycle 1, ± SD)	Tmax ([1]; Dose level 1 (n=6): alpelisib 300mg+capecitabine 1000mg/m^2, day 1 of cycle 1, ± SD)	Alpelisib exposure (Cmax and AUC0-12) with concomitant capecitabine ([1]; co-administration in patients)	MTD [3]
CCCCCOC(=O)Nc1nc(=O)n([C@@H]2O[C@H](C)[C@@H](O)[C@H]2O)cc1F [capecitabine]	0.89 h	2.67 µg·h/mL	2.5 µg/mL	0.63 h	6 µg·h/mL	2 h	4.16 µg/mL	1 to 2 h	2.67 to 8.71 µg·h/mL	60%				
Cc1nc(NC(=O)N2CCC[C@H]2C(N)=O)sc1-c1ccnc(C(C)(C)C(F)(F)F)c1 [alpelisib]	6.5 h	4.93 µg·h/mL	1.17 µg/mL	9.29 h	5.07 µg·h/mL		1.24 µg/mL	2 to 4 h	4.93 to 8.19 µg·h/mL		2 ± 0.6 h	4 ± 1.8 h	unaffected	400 mg
